Data set [1] has as its system hepatitis type B virus (HBV). As to the kind of experiment: Inhibition of HBV DNA replication in HepG2.2.15 cells. The format is cell-based. As to conditions: HepG2.2.15, HBV DNA replication. As to the method:
The inhibitory effect of the compounds of the present invention on hepatitis type B virus (HBV) was tested. Cytotoxicity and effects on nucleic acid (DNA) replication level of the virus (HBV) of the compounds of the present invention were tested at a virus-cell level.
HepG2.2.15 cells in the logarithmic growth phase were plated in a 96-well plate at a cell concentration of 40 cells per μL. The cells were incubated in a 5% CO2 incubator at 37° C. for 3 days; and the culture medium was replaced with a new one ([…]) before adding compounds. The concentration of the stock solution of each Example compound is 200 μM.

The nature of data set [2]: Cytotoxicity detection (CellTiter-Glo). As to conditions: human, HepG2.2.15 cells, highest concentration 150 μM. The format is cell-based. As to the method:
The test compounds were diluted to 30 mM with DMSO, with 30 mM as the highest concentration, the compounds were subjected to three-fold serial dilution to various concentrations. 0.2 μL of the compounds at various concentrations were added to a 384-well plate, HepG2.2.15 cells having a concentration of 2000 cells per 50 μL were added to each well, and the highest concentration of the test compounds was 150 μM. 1 μL of DMSO was added to corresponding wells for control. The plate was incubated in a 5% CO2 incubator at 37° C. for 4 days; and 50 μL of CellTiter-Glo was added to each well after 4 days. The plate was read for detection, and a half cytotoxic concentration (CC50) was calculated.
For orientation: In ATP-based viability assays light output follows the ATP content of the culture.

Data set [3] concerns the target T1, hERG potassium ion channel (Homo sapiens, UniProt Q12809).
T1 construct: purchased
The data set is described as follows: Predictor hERG Fluorescence Polarization Assay. The format is binding. As to conditions: for IC50: hERG fluorescence polarization. The text has this: In cardiac muscle cells, hERG (human Ether-a-go-go Related Gene) coded potassium channel mediates delayed rectifier potassium currents (IKr). IKr inhibition is the most important mechanism of QT interval prolongation caused by a drug.
Employing the Predictor™ hERG Fluorescence Polarization Assay, the effect of the compounds on a hERG potassium ion channel was detected.

Data set [4] is described as follows: In vivo pharmacokinetics (PK) in rats. As to conditions: male, SD, rat; for Kp: liver/plasma, 2 mg/kg. As for the experimental part:
The test compounds were administrated to male SD rats by intravenous (iv) and by gavage (po), respectively, the doses of the iv and po administration were respectively 1 mg/kg and 2 mg/kg, the solvent system for iv administration was 5% DMSO:5% solutol:90% physiological saline, and the solvent system for po administration was 0.5% MC. Blood was collected at multiple time points after iv administration and po administration for the PK study. Plasma samples and liver tissue samples were subjected to protein precipitation, followed by LC-MS/MS analysis. The mass spectrometer was API 5500, and the liquid chromatograph is a Waters ACQUITY I CLASS system; the chromatographic column was an Agela ASB C18 column (2.1 mm×50 mm, 1.9 μm); mobile phase A was water+0.1% formic acid, and phase B was acetonitrile; the flow rate was 0.4 mL/min, and the column temperature was 40° C. The ion source was an ESI source in a positive ion mode, and the scanning manner is multiple reaction monitoring (MRM).

Like-named read-outs stand apart in the source and are kept apart here.

T1 sequence (Q12809 whole entry): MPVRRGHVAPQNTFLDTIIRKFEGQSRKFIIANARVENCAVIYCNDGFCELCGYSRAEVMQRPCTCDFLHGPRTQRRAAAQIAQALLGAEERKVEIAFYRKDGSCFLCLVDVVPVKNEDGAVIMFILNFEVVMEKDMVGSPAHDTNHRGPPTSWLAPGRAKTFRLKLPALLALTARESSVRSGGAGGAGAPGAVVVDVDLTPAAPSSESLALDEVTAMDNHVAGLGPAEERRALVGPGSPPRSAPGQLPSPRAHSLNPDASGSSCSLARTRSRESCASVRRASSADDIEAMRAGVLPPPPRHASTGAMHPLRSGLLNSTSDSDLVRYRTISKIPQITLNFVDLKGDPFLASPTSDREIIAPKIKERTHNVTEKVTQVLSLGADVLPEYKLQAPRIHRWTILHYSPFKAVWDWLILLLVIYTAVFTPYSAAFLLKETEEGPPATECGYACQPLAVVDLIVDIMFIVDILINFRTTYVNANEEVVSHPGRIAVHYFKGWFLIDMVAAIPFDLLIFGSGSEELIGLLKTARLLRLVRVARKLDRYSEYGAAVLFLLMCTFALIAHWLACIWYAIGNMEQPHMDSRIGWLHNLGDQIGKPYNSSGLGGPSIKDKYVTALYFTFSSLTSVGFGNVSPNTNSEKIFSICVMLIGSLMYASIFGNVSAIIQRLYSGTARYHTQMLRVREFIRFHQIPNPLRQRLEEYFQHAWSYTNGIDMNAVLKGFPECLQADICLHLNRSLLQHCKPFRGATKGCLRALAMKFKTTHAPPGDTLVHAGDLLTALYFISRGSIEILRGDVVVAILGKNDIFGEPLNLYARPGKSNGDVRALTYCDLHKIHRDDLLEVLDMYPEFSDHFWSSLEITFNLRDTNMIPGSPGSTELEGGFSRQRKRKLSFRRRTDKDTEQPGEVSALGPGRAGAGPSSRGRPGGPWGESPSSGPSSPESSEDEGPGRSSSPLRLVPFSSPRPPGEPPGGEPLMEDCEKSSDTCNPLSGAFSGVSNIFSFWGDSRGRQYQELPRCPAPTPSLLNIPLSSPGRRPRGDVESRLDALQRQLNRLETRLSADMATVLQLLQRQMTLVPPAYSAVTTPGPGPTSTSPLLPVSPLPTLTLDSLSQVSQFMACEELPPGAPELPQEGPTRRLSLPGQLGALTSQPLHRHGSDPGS

The EC50 is the concentration at which the effect is half-maximal. By CC50 is commonly meant the concentration giving 50% cytotoxicity. Low readings indicate greater toxicity to the cells, high ones lower toxicity to the cells. As usually defined, the IC50 is the concentration needed to halve the response being measured. `CCOC(=O)C1=C(CN2CCC(O)C(F)(F)C2)NC(c2nccs2)=N[C@H]1c1ccc(F)cc1Cl` (single isomer, unassigned) [Isomer B of Example 4] came in with an EC50 in data set [1] of 34.7 nM. In data set [2], the half-maximal cytotoxic concentration (CC50) at 4 days amounted to 51300 nM. In addition, in data set [3], the IC50 was over 10000 nM.
Take `CCOC(=O)C1=C(CN2CC(F)(F)C2)NC(c2nccs2)=N[C@H]1c1ccc(F)cc1Cl` [10-7 of Example 6, (R)-ethyl 4-(2-chloro-4-fluorophenyl)-6-((3,3-difluoroazetidin-1-yl)methyl)-2-(thiazol-2-yl)-1,4-dihydropyrimidine-5-carboxylate]: the EC50 in data set [1] is 102 nM. This compound gave a CC50 at 4 days in data set [2] of 130000 nM.
In the same order, the values of `CCOC(=O)C1=C(CN2C[C@@H](O)[C@H](F)C2)NC(c2nccs2)=N[C@H]1c1ccc(F)cc1Cl` [10-34 of Example 9, (R)-ethyl 4-(2-chloro-4-fluorophenyl)-6-(((3R,4R)-3-fluoro-4-hydroxypyrrolidin-1-yl)methyl)-2-(thiazol-2-yl)-1,4-dihydropyrimidine-5-carboxylate] are 13.2 nM and 79600 nM.
In data set [1], `CCOC(=O)C1=C(CN2C[C@@H](F)[C@H](OCC(=O)O)C2)NC(c2nccs2)=N[C@H]1c1ccc(F)cc1Cl` [10-36 of Example 10, 2-(((3R,4R)-1-(((R)-6-(2-chloro-4-fluorophenyl)-5-(ethoxycarbonyl)-2-(thiazol-2-yl)-3,6-dihydropyrimidin-4-yl)methyl)-4-fluoropyrrolidin-3-yl)oxy)acetic acid] yielded an EC50 of 98.1 nM. In data set [2], the cytotoxic concentration (CC50) at 4 days is over 150000 nM. The 50% inhibitory concentration (IC50) in data set [3] is over 10000 nM.
The like results for `CCOC(=O)C1=C(CN2CC(O)C(F)(F)C2)NC(c2nccs2)=N[C@H]1c1ccc(F)cc1Cl` (stereo partly drawn) [10-40 of Example 11, (4R)-ethyl 4-(2-chloro-4-fluorophenyl)-6-((3,3-difluoro-4-hydroxypyrrolidin-1-yl)methyl)-2-(thiazol-2-yl)-1,4-dihydropyrimidine-5-carboxylate] were, in that order, 6.2 nM, 73500 nM and over 10000 nM.
Take `CCOC(=O)C1=C(CN2CCC(O)C(F)(F)C2)NC(c2nccs2)=NC1c1ccc(F)cc1Br` (centres unmarked) [10-93 of Example 2, ethyl 4-(2-bromo-4-fluorophenyl)-6-((3,3-difluoro-4-hydroxypiperidin-1-yl)methyl)-2-(thiazol-2-yl)-1,4-dihydropyrimidine-5-carboxylate]: the IC50 in data set [3] is over 10000 nM.
The compound `CCOC(=O)C1=C(CN2CC(COCC(=O)O)CC(F)(F)C2)NC(c2nccs2)=N[C@H]1c1ccc(F)cc1Cl` (stereo partly drawn) [10-136 of Example 16, 2-((1-(((R)-6-(2-chloro-4-fluorophenyl)-5-(ethoxycarbonyl)-2-(thiazol-2-yl)-3,6-dihydropyrimidin-4-yl)methyl)-5,5-difluoropiperidin-3-yl)methoxy)acetic Acid] showed an EC50 in data set [1] of 110 nM. In data set [2], this compound showed a CC50 at 4 days of 122000 nM.
As to `CCOC(=O)C1=C(CN2CCOCC2COCC(=O)O)NC(c2nccs2)=N[C@H]1c1ccc(F)cc1Cl` (stereo partly drawn) [10-162 of Example 15, 2-((4-(((R)-6-(2-chloro-4-fluorophenyl)-5-(ethoxycarbonyl)-2-(thiazol-2-yl)-3,6-dihydropyrimidin-4-yl)methyl)morpholin-3-yl)methoxy)acetic Acid], the EC50 in data set [1] worked out at 213 nM. The same compound gave a 50% cytotoxic concentration (CC50) at 4 days in data set [2] of over 150000 nM.
In the case of `CCOC(=O)C1=C(CN2CCOC(/C=C/C(=O)O)C2)NC(c2nccs2)=N[C@H]1c1ccc(F)cc1Cl` (stereo partly drawn) [10-180 of Example 14, (E)-3-(4-(((R)-6-(2-chloro-4-fluorophenyl)-5-(ethoxycarbonyl)-2-(thiazol-2-yl)-3,6-dihydropyrimidin-4-yl)methyl)morpholin-2-yl)acrylic Acid], the half-maximal effective concentration (EC50) in data set [1] amounted to 23.5 nM. This compound also came in with a cytotoxic concentration (CC50) at 4 days in data set [2] of over 150000 nM.
Turning to `CCOC(=O)C1=C(CN2CCOCC2/C=C/C(=O)O)NC(c2nccs2)=N[C@H]1c1ccc(F)cc1Cl` (stereo partly drawn) [10-182 of Example 13, (E)-3-(4-(((R)-6-(2-chloro-4-fluorophenyl)-5-(ethoxycarbonyl)-2-(thiazol-2-yl)-3,6-dihydropyrimidin-4-yl)methyl)morpholin-3-yl)acrylic Acid], in data set [1], the concentration giving a half-maximal response (EC50) is 61.8 nM. This compound also registered a CC50 at 4 days in data set [2] of over 150000 nM.
As for `COC(=O)C1=C(CN2CCO[C@H](/C=C/C(=O)O)C2)NC(c2nccs2)=N[C@H]1c1ccc(F)cc1Br` [10-229 of Example 28, (E)-3-((R)-4-(((R)-6-(2-bromo-4-fluorophenyl)-5-(methoxycarbonyl)-2-(thiazol-2-yl)-3,6-dihydropyrimidin-4-yl)methyl)morpholin-2-yl)acrylic Acid], the EC50 in data set [1] stood at 8.3 nM. Also, the cytotoxic concentration (CC50) at 4 days in data set [2] is over 150000 nM.
The like results for `COC(=O)C1=C(CN2CCO[C@H](/C=C/C(=O)O)C2)NC(c2nccs2)=N[C@H]1c1ccc(F)c(F)c1Cl` [10-237 of Example 30, (E)-3-((R)-4-(((R)-6-(2-chloro-3,4-difluorophenyl)-5-(methoxycarbonyl)-2-(thiazol-2-yl)-3,6-dihydropyrimidin-4-yl)methyl)morpholin-2-yl)acrylic Acid] were, in that order, 10.9 nM and over 150000 nM.
In the same order, the values of `COC(=O)C1=C(CN2CCO[C@H](/C=C/C(=O)O)C2)NC(c2nccs2)=N[C@H]1c1ccc(F)c(F)c1Br` [10-238 of Example 31, (E)-3-((R)-4-(((R)-6-(2-bromo-3,4-difluorophenyl)-5-(methoxycarbonyl)-2-(thiazol-2-yl)-3,6-dihydropyrimidin-4-yl)methyl)morpholin-2-yl)acrylic Acid] are 10.2 nM and over 150000 nM.
In the same order, the values of `COC(=O)C1=C(CN2CCO[C@H](/C=C/C(=O)O)C2)NC(c2nccs2)=N[C@H]1c1ccc(F)c(F)c1C` [10-239 of Example 32, (E)-3-((R)-4-(((S)-6-(3,4-difluoro-2-methylphenyl)-5-(methoxycarbonyl)-2-(thiazol-2-yl)-3,6-dihydropyrimidin-4-yl)methyl)morpholin-2-yl)acrylic Acid] are 28.9 nM and over 150000 nM.
In the case of `COC(=O)C1=C(CN2CCO[C@H](/C=C/C(=O)O)C2)NC(c2nccs2)=N[C@H]1c1cccc(F)c1Cl` [10-240 of Example 33, (E)-3-((R)-4-(((R)-6-(2-chloro-3-fluorophenyl)-5-(methoxycarbonyl)-2-(thiazol-2-yl)-3,6-dihydropyrimidin-4-yl)methyl)morpholin-2-yl)acrylic Acid], in data set [1], the response was half-maximal at 21.1 nM (EC50). Further, the CC50 at 4 days in data set [2] was over 150000 nM.
A word on the bioavailability: it is the share of a dose that reaches the circulation, judged against a reference dose that is usually intravenous. As usually defined, the AUC(0-inf) is the area under the concentration-time curve extrapolated to infinity. Higher therefore signals more exposure. What is called Cmax is the maximum level reached in the sampled fluid or tissue. Turning to `CCOC(=O)C1=C(CN2CCO[C@H](CCC(=O)O)C2)NC(c2nccs2)=N[C@H]1c1ccc(F)cc1Cl` [Control compound 2, reference compound], in data set [1], the concentration for a half-maximal effect (EC50) amounted to 89 nM. Also, the “inhibitory effect on the hERG potassium ion channel (in words)” value in data set [3] (criterion: IC50 greater than 10 μM = no inhibitory effect) is reported as “significant inhibitory effect”. Moreover, in data set [3], the half-inhibitory concentration (IC50) is 1000 to 10000 nM. The bioavailability in data set [4] (plasma, po, by gavage, 2.00 mg/kg, read-out: bioavailability (F)) worked out at 20.9%. The Kp is about 1.5 in data set [4] (po, po, 2.00 mg/kg, AUCINF liver/plasma, read-out: amount of exposure in liver relative to that in plasma) and about 0.5 in data set [4] (po, po, 2.00 mg/kg, Cmax liver/plasma, read-out: blood-drug concentration in liver relative to that in plasma). For the same compound, the area under the curve AUC(0-inf) in data set [4] (iv, 1.00 mg/kg, plasma) turned out to be 2150 ng·h/mL; in data set [4] (po, 2.00 mg/kg, liver), 1490 ng·h/mL; in data set [4] (po, 2.00 mg/kg, plasma), 897 ng·h/mL. The Cmax in data set [4] (iv, 1.00 mg/kg, plasma) came to 2470 ng/mL; in data set [4] (po, 2.00 mg/kg, liver) it was 547 ng/mL; in data set [4] (po, 2.00 mg/kg, plasma) it was 1250 ng/mL.

The values are drawn from patent US11166954B2, “Dihydropyrimidine compound and preparation method and use thereof” (SICHUAN KELUN-BIOTECH BIOPHARMACEUTICAL CO., LTD., priority 2016, dated 2021).
